Here are results for 1 compound from patent publication US20190142737A1, “SUBLINGUAL SPRAY FORMULATION COMPRISING DIHYDROARTEMESININ” (LondonPharma Ltd., priority 2009, published 2019).

The conditions of data set [1]: humans, cited from earlier work.
A short description of data set [2]: Impurities of artemether in solvent systems after eight weeks storage (HPLC). The class given is physicochemical. As to conditions: in contact with water, ethanol, or propellants for aerosol formulations. From the text:
Tables 1 and 2 show impurities present in Artemether API, and artemether in three solvent systems: 20% ethanol+80% propellant; 50% ethanol+50% propellant; 100% ethanol; and a medium chain triglyceride, in this case, the triglyceride sold under the registered trade mark Miglyol® 810. Miglyol® is a medium chain triglyceride containing saturated C8 and C10 fatty acids, typically between 65-80% of caprylic acid (C8:0) and 20-35% of capric acid (C10:0). The propellant used in these test was 1,1,1,2 tetrafluoroethane, sold under the registered trade mark Zephex® 134a. Similar results were obtained for the propellants butane, Zephex® 227 (1,1,1,2,3,3,3 heptafluoropropane) and for a mixture of butane and propane. […] In all other cases, the impurities are at levels that exceed those permitted under the ICH Harmonised Tripartite Guidelines for Impurities in New Drug Products without specific identification or further toxicological examination.

The conditions of data set [3]: animals, cited from earlier work.

Like-named read-outs stand apart in the source and are kept apart here.

With `CO[C@H]1O[C@@H]2O[C@@]3(C)CC[C@H]4[C@H](C)CC[C@@H]([C@H]1C)[C@@]24OO3` [artemether], the Bioavailability in data set [1] (intramuscular route) is listed as 25%; in data set [1] (intrarectal route) it was 35%; in data set [3] (intramuscular injection) it was 54%; in data set [3] (oral administration), 19-35%. Also, the “Stability of artemether (in words)” value in data set [2] is reported as “not stable”.
